Test results: the NIST ThermoML archive (doi:10.1016/j.jct.2012.11.032)
Values joined by “and” are separate entries in the source; they are usually repeats but may differ in a detail not shown here. Equal values may be shown once. ± gives the expanded uncertainty stated by the source.

How the values were obtained:
[1] = xn = mol fraction of the nth substance listed; settings: 101 kPa, Liquid, x2 = 0; for mass density: Vibrating tube method; for speed of sound: Sing-around technique in a fixed-path interferometer
[2] = 101 kPa, Liquid, Vibrating tube method

mass density ([1]; 283 K) | mass density ([1]; 288 K) | mass density ([1]; 293 K) | mass density ([1]; 303 K) | mass density ([1]; 308 K) | speed of sound ([1]; 313 K) | mass density ([1]; 313 K) | mass density ([2]; 288 K) | mass density ([2]; 293 K) | mass density ([2]; 303 K) | Structure (SMILES) | mass density ([2]; 283 K) | mass density ([2]; 308 K) | mass density ([2]; 313 K)
999.754 ± 0.1 kg/m3 | 999.166 ± 0.1 kg/m3 | 998.283 ± 0.1 kg/m3 | 995.75 ± 0.1 kg/m3 | 994.144 ± 0.1 kg/m3 | 1529 ± 1.2 m/s | 992.33 ± 0.1 kg/m3 |  |  |  | O [water] + CCCCCCCC[n+]1ccn(C)c1.[Cl-] |  |  | 
 |  |  |  |  |  |  | 999.166 ± 0.1 kg/m3 | 998.283 ± 0.1 kg/m3 | 995.75 ± 0.1 kg/m3 | O [water] | 999.754 ± 0.1 kg/m3 and 999.719 ± 0.1 kg/m3 and 999.713 ± 0.1 kg/m3 | 994.099 ± 0.1 kg/m3 and 994.091 ± 0.1 kg/m3 and 994.144 ± 0.1 kg/m3 | 992.27 ± 0.11 kg/m3 and 992.33 ± 0.1 kg/m3
999.713 ± 0.1 kg/m3 |  |  |  | 994.099 ± 0.1 kg/m3 | 1529 ± 1.2 m/s |  |  |  |  | O [water] + CCCCCCCCCCn1cc[n+](C)c1.[Cl-] |  |  | 
999.719 ± 0.1 kg/m3 |  |  |  | 994.091 ± 0.1 kg/m3 | 1529 ± 1.2 m/s | 992.27 ± 0.1 kg/m3 |  |  |  | O [water] + CCCCCCCCCCCC[n+]1ccn(C)c1.[Cl-] |  |  | 
